The record followed here is patent publication US11590101B2, “Use of a composition comprising 7-hydroxymatairesinol” (LINNEA S.A., priority 2017, dated 2023).

Data set [1] concerns rodent model of Parkinson's disease-like nigrostriatal neurodegeneration caused by stereotaxic injection of 6-OHDA. Put plainly: Nigrostriatal damage evaluation by TH immunohistochemistry in 6-OHDA model. Format: in vivo, rat.
Data set [2] is described as follows: Oxidative stress evaluation (plasma GSH/GSSG, Glutathione assay kit). Format: in vivo, rat. The conditions noted are these: POST group; not reaching statistical significance. As for the experimental part: Plasma levels of reduced (GSH) and oxidized (GSSG) glutathione were estimated by using a biochemical Glutathione assay kit (Cayman Chemical), as an index of antioxidant effect of HMR treatment.
Results were expressed as a GSH/GSSG ratio.
Since no significant difference in neuroinflammation was observed between vehicle-treated animals and animals that received HMR before the intra-striatal injection of 6-OHDA, oxidative stress was evaluated only in the groups treated with HMR after 6-OHDA infusion.

The nature of data set [3]: Food consumption and body weight monitoring. The following applies: monitored daily throughout the experiments. Format: in vivo, rat. The text has this:
Food consumption and body weight changes were monitored daily.

The subject of data set [4] is microglia in the lesioned SNc. In words: Analysis of microglia polarization (CD32+ M1 / CD206+ M2). Format: in vivo, rat. The following applies: POST group; vehicle mainly M1, no M2 detected. As for the experimental part:
The analysis of microglia polarization was performed by evaluating the percentage of CD32+ and CD206+ cells, respectively M1 and M2 phenotypes marker, of the total microglia cells in the lesioned SNc, using respectively CD32 or CD206 (Santa Cruz, 1:300) antibodies.
Since no significant differences in microglial activation were observed between vehicle-treated animals and animals that received HMR before the intra-striatal injection of 6-OHDA, microglia polarization was evaluated only in the groups treated with HMR after 6-OHDA infusion.

Data set [5] concerns microglia in the lesioned SNc. In words: Neuroinflammation evaluation through microglia activation assessment (CD11b staining of lesioned SNc). Format: in vivo, rat. Further details: key to Colburn's score (microglia morphology): Resting stage (score 0): microglial cells are ramified, well spaced-out, with a small cell body.; Stage 1 (score +): microglial cells are ramified, with a decreased intercellular space.; Stage 2 (score ++): microglial cells show a loss of ramification and increased density.; Stage 3 (score +++): microglial cells show short and think ramifications. The conditions noted are these: for Colburn's score (microglia morphology): control group ++. As for the experimental part: The evaluation of the 6-OHDA induced neuroinflammation was carried out via immunofluorescent staining of coronal SNc sections of both HMR-treated and control animals.
Microglia activation was assessed by observing sections of the lesioned SNc stained for CD11 b, under low and medium magnification (20×-40×), both quantitatively, by counting the microglial cells in the lesioned SNc, and qualitatively, analysing the morphological changes of the cells.
Mouse anti CD11b (MCA275R, Serotec, 1:300) primary antibody was used to assess microglia activation and density in the SNc. Anti-TH primary antibody was added for localization and cell count. Goat anti-mouse AlexaFluor488 and goat anti-rabbit AlexaFluor594 (Life Sciences, 1:300) were used as secondary antibodies.
Cell count was performed by analysing three different SNc sections, chosen according to rostro-caudal coordinates.
Morphological changes mirroring the state of activation were scored according to the Colburn scale. Cell density was assessed by counting CD11 b+ cells from a stack of 16 pictures (in a 0.04 mm^2 frame, 1 μm-thick, 40× magnification) taken from three discrete areas of the same SNc section.
Colburn's scale takes into account four activation stages, which differ for the cells morphology and density, and are summarized below.
Resting stage (score 0): microglial cells are ramified, well spaced-out, with a small cell body.
Stage 1 (score +): microglial cells are ramified, with a decreased intercellular space.
Stage 2 (score ++): microglial cells show a loss of ramification and increased density.
Stage 3 (score +++): microglial cells show short and think ramifications.

The nature of data set [6]: HMR plasma levels assay (LC-MS/MS). Format: in vivo. The conditions noted are these: rat, oral, rats fed 4 weeks with 5% sucrose enriched food with HMR (10 mg/Kg per day), all active treatment groups. As for the experimental part: Concentration of HMR and its major metabolite enterolactone was measured in plasma samples (50 μL) from rats fed for 4 weeks with 5% sucrose enriched food with HMR, using an LC-MS/MS system (AP14500 Qtrap ABSciex).
Calibration curves in the range from 0.1 ng/mL to 100 ng/mL were obtained from measurements on control samples containing the pure analytes, prepared from stock solutions of HMR and enterolactone in MeOH at the concentration of 1 mg/mL. Said stock solutions were diluted in acetonitrile (ACN) at a concentration of 250 μg/mL, then working solutions were prepared by sequential dilution in ACN.
45 μL of plasma and 5 μL of working solution were added to 300 μL of an ACN solution containing the internal standard catechin (conc. 200 ng/mL). After mixing, samples were centrifuged for 5 min at 3000 g at 5° C., and injected into LC-MS/MS.
The plasma samples from the in vivo treatment were prepared subjecting 50 μl of sample to centrifugation for 5 min at 3000 g at 5° C., and were injected into LC-MS/MS.
Calibration curves allowed determining, by comparison, the amount of each analytes in the plasma samples obtained from the rats of the study.

Where [7] appears, read: PRE group, day 28 post-surgery, same in HMR-treated and control animals.

Turning to `COc1cc(CC2C(=O)OCC2C(O)c2ccc(O)c(OC)c2)ccc1O` (centres unmarked) [HMR, 7-hydroxymatairesinol], the “Reduction of TH+ terminal loss in lesioned striatum versus control” value in data set [1] (POST group: HMR 10 mg/Kg per day for 4 weeks after 6-OHDA, day 28, p<0.05) was “about 32%”. The “Reduction of the 6-OHDA induced loss of TH+ neurons in lesioned SNc versus vehicle” value in data set [1] (POST group: HMR 10 mg/Kg per day for 4 weeks after 6-OHDA, day 28, p=0.055) was “about 20%”. Further, in data set [1] (setting [7]), the “TH+ neurons depletion in the SNc, lesioned side versus contralateral hemisphere” value was “up to 55%” and the “TH+ terminals loss in the striatum, lesioned side” value is listed as at most 65%. The “Nigrostriatal damage (striatal or SNc level) versus vehicle-treated animals” value in data set [1] (PRE group: HMR 10 mg/Kg per day in food for 4 weeks before 6-OHDA) is on record as “no differences in nigrostriatal damage”. Also, in data set [2], the “Plasma GSH/GSSG ratio versus vehicle-treated animals” value is on record as “trend toward an increased GSH/GSSG ratio”. Moreover, the “Food intake or weight gain, treated versus untreated rats” value in data set [3] is given as “No differences”. Moreover, the “Microglia polarization phenotype (M1 CD32+ / M2 CD206+)” value in data set [4] was “mainly oriented toward the neuroprotective, M2 (CD11b+/CD206+) phenotype”. The “Colburn's score (microglia morphology)” value in data set [5] (POST group (HMR after 6-OHDA)) was “+”. Besides, the “Density of CD11b+ cells in the SNc” value in data set [5] (POST group, vehicle-treated group 750 cells/mm^2, significant decrease) is listed as 550 cells/mm^2. Also, the “Microglial cell count versus vehicle-treated animals” value in data set [5] (PRE group) is “no differences in the microglial cell count”. Moreover, the “Colburn's score (microglia morphology)” value in data set [5] (PRE group (HMR before 6-OHDA)) is “++”. Besides, the “Number of CD11b+ cells per mm^2 of SNc” value in data set [5] (PRE group, average, both HMR and vehicle groups) is 750 cells/mm^2. Also, the concentration at 4 weeks in data set [6] worked out at 0.92 ± 0.74 ng/mL.
